Reference: patent publication US7129273B2, “Dicreatine Malate” (Creative Compounds, LLC, priority 2003, dated 2006)

Key:
[1] = metabolic properties and overall effectiveness as a supplement, compared with other creatine forms; type: in vivo
[2] = test system: burn victims; settings: compared with molar equivalents of ornithine base and alpha-ketoglutaric acid taken separately; cited from earlier work
[3] = test system: ATP production; experiment: production of ATP (high energy phosphate molecules); settings: compared with additive effects of creatine and malic acid taken separately
[4] = problems associated with creatine supplementation (cramping, bloating); type: in vivo; settings: compared with other creatine supplementation
[5] = absorption / bioavailability after oral supplementation; type: in vivo
[6] = compared with any other form of creatine or malic acid supplement currently available
[7] = compared to creatine monohydrate

Q: With `CN(CC(=O)O)C(=N)N.O=C(O)CC(O)C(=O)O` [monocreatine malate, reference compound] as the compound, how does the “effect compared with dicreatine malate” value ([1]; comparison with dicreatine malate, inventors' experience) read?
A: The value was “inferior to the dicreatine malate”.

Q: For `NCCC[C@H](N)C(=O)O` [ornithine alpha-ketoglutarate], which anti-catabolic effect [2] is on record?
A: The anti-catabolic effect was “strong anti-catabolic effect on burn victims far greater in effect than what is produced by merely combining the effects of the molar equivalents”.

Q: For dicreatine malate, which “production of ATP” value [3] is on record?
A: The value was “increases the production of ATP to a much greater extent than what would be expected by the mere additive effects”.

Q: And the “problems associated with creatine supplementation (cramping, bloating, bioavailability issues)” value [4]?
A: The value was “decreasing some of the problems associated with other creatine supplementation”.

Q: And the absorption [5, 6]?
A: The absorption was “more readily absorbed”.

Q: What about the “bioavailabilities of the creatine and malic acid moieties” value ([5]; compared with individual bioavailabilities of creatine monohydrate and malic acid) of the same compound?
A: Its value is “increase the bioavailablities of both the creatine and malic acid moieties”.

Q: What about the decreasing adipose stores [1, 7] of the same compound?
A: Its decreasing adipose stores is “enhanced efficacy for decreasing adipose stores”.

Q: What about the increasing cell volumization [1, 7] of the same compound?
A: Its increasing cell volumization is “enhanced efficacy for increasing cell volumization”.

Q: What about the increasing muscle mass [1, 7] of the same compound?
A: Its increasing muscle mass is “enhanced efficacy for increasing muscle mass”.

Q: And the “increasing overall strength and endurance” value [1, 7]?
A: The value was “enhanced efficacy for increasing for increasing overall strength and endurance”.

Q: What about the effectiveness [1, 6] of the same compound?
A: The effectiveness was “much more effective”.
